Assay results published in patent US9463186B2, “Treatment for dopaminergic disorders” (Northwestern University, priority 2013, dated 2016).
Entries after “also recorded” stand apart in the source; their conditions may differ.

What was measured:
[1] = system: SNc DA neurons; experiment: Mito-roGFP imaging of mitochondrial oxidant stress after chronic drug treatment by s.c. osmotic minipumps; type: in vivo, mice; conditions: for dose dependence of the effect of chronic administration on mitochondrial oxidant stress: 1 week via s.c. osmotic minipump, isradipine 0.03, 0.3, 3 mg/kg/day, rasagiline 1 and 3 mg/kg/day, FIG. 8; for mitochondrial oxidant stress in SNc dopaminergic neurons, chronic treatment: chronic (1 week) s.c. osmotic minipumps, FIG. 7d
[2] = system: SNc dopaminergic neurons; conditions: brain slice taken following rasagiline treatment; FIG. 6
[3] = system: SNc dopaminergic neurons; conditions: Fluo4 and 2PLSM; FIG. 6
[4] = system: SNc DA neurons; conditions: acute treatment at the time of measurement; FIG. 7c-d
[5] = system: L-type calcium channels (Cav1.3) of SNc dopaminergic neurons; experiment: Whole cell patch clamp recordings of dopaminergic neurons in brain slices (Example 2); type: cell-based, mouse; conditions: for inhibition of L-type calcium channels: dihydropyridine antagonists, brain slice, FIG. 1 and FIG. 4

SMILES | dose dependence of the effect of chronic administration on mitochondrial oxidant stress [1] | mitochondrial oxidant stress in SNc dopaminergic neurons, chronic treatment [1] | inhibition of L-type calcium channels [5] | other results
C#CCN[C@@H]1CCc2ccccc21 [rasagiline] | dose-dependent | diminished; also recorded: further lowers stress |  | pacemaking of SNc dopaminergic neurons [2]: no effect on pacemaking; calcium entry linked to pacemaking (intracellular calcium oscillations) [3]: no effect; mitochondrial oxidant stress in SNc dopaminergic neurons, acute treatment [4]: lowers mitochondrial oxidant stress
COCCOC(=O)C1=C(C)NC(C)=C(C(=O)OC(C)C)C1c1cccc([N+](=O)[O-])c1 (stereo not drawn) [nimodipine, isopropyl 2-methoxyethyl 1,4-dihydro-2,6-dimethyl-4-(m-nitrophenyl)-3,5-pyridinedicarboxylate] |  |  | inhibited | autonomous pacemaking of dopaminergic neurons ([5]; tissue slice from an adult, FIGS. 1a-d): inhibits autonomous pacemaking
COC(=O)C1=C(C)NC(C)=C(C(=O)OC(C)C)C1c1cccc2nonc12 (stereo not drawn) [isradipine, 3,5-pyridinedicarboxylic acid, 4-(4-benzofurazanyl)-1,4-dihydro-2,6-dimethyl-, methyl 1-methylethyl ester] | dose-dependent | diminished | inhibited | pacemaking during sustained blockade of Cav1.3 channels ([5]; adult SNc dopaminergic neuron, before, during and after application, FIG. 4): restores pacemaking and dopaminergic neuron cell function through an altered pacemaking mechanism
NC1=N[C@H](O)[C@H]2[C@H]3O[C@]4(O)O[C@@H]([C@@H](O)[C@@]2(N1)[C@@H]4O)[C@]3(O)CO [tetrodotoxin] |  |  |  | spikes and underlying oscillations that drive pacemaking [5]: eliminates spikes but not the underlying oscillations
